Source: patent US4713445A, “Renin inhibitors and treatments using them” (priority 1983, dated 1987)
*1 amine or outer side, *2 acyl side, *3 side chain or, on linkers, in order; H or OH if unused. Where a SMILES comes first, the peptide text is derived from it. Where no end group is shown, it is not given here. [ ]: non-standard residue; d: D form. The star is where a group is joined. Leuψ(CH2NH)ValIleHisOH = CC[C@H](C)[C@H](NC(=O)[C@@H](NC[C@H](CC(C)C)N*)C(C)C)C(=O)N[C@@H](Cc1c[nH]cn1)C(=O)O; X3 = CC[C@H](C)[C@H](NC(=O)[C@@H](NC[C@H](CC(C)C)N*)C(C)C)C(=O)N[C@@H](Cc1ccc(O)cc1)C(=O)O; X5 = CC(C)C[C@@H](CN[C@H](C(=O)N[C@@H](Cc1c[nH]cn1)C(=O)NCCCCCN)C(C)C)N*; X2 = CC(C)C[C@@H](CN[C@H](C(=O)N[C@@H](Cc1c[nH]cn1)C(=O)NCCCN)C(C)C)N*; X1 = CC(C)C[C@H](N[*:1])[C@@H](O)C[C@H](C(=O)[*:2])C(C)C; X4 = CC(C)C[C@H](N[*:1])[C@@H](O)CCC(=O)[*:2]; Boc = CC(C)(C)OC(=O)*

Each compound was assayed against T1, human renin (Homo sapiens, UniProt P00797) (assay: human renin-renin substrate reaction in vitro; radioimmunoassay of angiotensin-I released in human plasma). Details: Table 2; read-out: IC50 μM v/s human renin.
T1 construct: angiotensin-I released from human renin substrate by human resin in human plasma; from tissue; host or cells: human plasma (containing EDTA)
T1 sequence (P00797 67-406): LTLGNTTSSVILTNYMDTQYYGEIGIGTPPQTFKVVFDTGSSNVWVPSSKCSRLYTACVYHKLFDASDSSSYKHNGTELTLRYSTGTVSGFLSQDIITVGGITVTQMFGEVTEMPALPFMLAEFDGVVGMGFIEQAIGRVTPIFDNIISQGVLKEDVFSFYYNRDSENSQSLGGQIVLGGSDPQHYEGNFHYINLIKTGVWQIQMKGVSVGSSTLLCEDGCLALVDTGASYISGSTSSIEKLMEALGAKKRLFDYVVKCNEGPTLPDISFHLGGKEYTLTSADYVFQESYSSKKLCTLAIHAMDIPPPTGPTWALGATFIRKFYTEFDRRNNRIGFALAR
Format: biochemical
Excerpt: Preliminary activity test results in the human […] substrate reaction in vitro are given, with comparative figures for the tetrapeptide analogue (III). […] The test results given herein are based on the methods described by J. A. Miller et al in Clinica Chimica Acta (1980) 101 5-15 and K. Poulsen and J. Jorgensen in J. Clin. Endocrinol. Metab. (1974) 39 816, and is based on the measurement, by radioimmunoassay, of angiotensin-I released from human renin substrate by human resin in human plasma. The inhibitor is dissolved in 0.01N HCl (10 μl) and added to hmman plasma (75 μl) containing EDTA, and angiotensin-I antibody (15 μl) in 3M-Tris/HCl buffer (pH 6.9). After incubation at 37° C. for 0-120 minutes, the enzymic reaction is quenched by the addition of ice-cold 0.25M Tris/HCl buffer (pH 7.4) containing 0.01% of bovine serum albumin. 125I-labelled angiotensin-I is added, followed by equilibration at 4° C. for 48 hours. Free and bound ligand are separated by the addition of dextrancoated charcoal, and the amount of bound radio-ligand determined in a gamma counter.
In the case of `CC[C@H](C)[C@H](NC(=O)CC[C@H](O)[C@H](CC(C)C)NC(=O)[C@H](Cc1c[nH]cn1)NC(=O)[C@H](Cc1ccccc1)NC(=O)OC(C)(C)C)C(=O)N[C@@H](Cc1c[nH]cn1)C(=O)O` [Example XLVIII] (Boc-FH[X4]IH-OH), the IC50 is reported as 0.3 µM.
`CC[C@H](C)[C@H](NC(=O)[C@@H](C[C@H](O)[C@H](CC(C)C)NC(=O)[C@H](Cc1c[nH]cn1)NC(=O)[C@@H](N)Cc1ccccc1)C(C)C)C(=O)N[C@@H](Cc1c[nH]cn1)C(=O)O` [Example XLVII] (H-FH[X1]IH-OH) gave an IC50 of 5 µM.
Compound `CC[C@H](C)[C@H](NC(=O)[C@@H](C[C@H](O)[C@H](CC(C)C)NC(=O)[C@H](Cc1c[nH]cn1)NC(=O)[C@H](Cc1ccccc1)NC(=O)OC(C)(C)C)C(C)C)C(=O)N[C@@H](Cc1c[nH]cn1)C(=O)O` [Example XLVI] (Boc-FH[X1]IH-OH) has an IC50 of 0.007 µM.
Compound `CC[C@H](C)[C@H](NC(=O)[C@@H](C[C@H](O)[C@@H](N)CC(C)C)C(C)C)C(=O)N[C@@H](Cc1c[nH]cn1)C(=O)O` [XLIII] has an IC50 of 29 µM.
`CC[C@H](C)[C@H](NC(=O)[C@@H](C[C@H](O)[C@H](CC(C)C)NC(=O)[C@H](Cc1c[nH]cn1)NC(=O)[C@H](Cc1ccccc1)NC(=O)OC(C)(C)C)C(C)C)C(=O)N[C@@H](Cc1ccccc1)C(=O)OC` [XLIX] (Boc-FH[X1]IF-OMe) gave an IC50 of 0.018 µM.

Same assay, conditions: Table 5; human renin-renin substrate reaction in vitro; read-out: IC50
`CC[C@H](C)[C@H](NC(=O)[C@@H](NC[C@H](CC(C)C)NC(=O)[C@H](Cc1c[nH]cn1)NC(=O)[C@H](Cc1ccccc1)NC(=O)[C@@H]1CCCN1C(=O)[C@@H](N)Cc1c[nH]cn1)C(C)C)C(=O)N[C@@H](Cc1ccc(O)cc1)C(=O)O` [Example X] gave an IC50 of 0.2 µM.
“HPFHLVIH [corresponding nonisosteric peptide, reference compound]” showed an IC50 of 400 µM.

Same assay, conditions: Table I; human renin in human plasma; read-out: IC50, μM human
`CC[C@H](C)[C@H](NC(=O)[C@@H](NC[C@H](CC(C)C)NC(=O)[C@H](Cc1c[nH]cn1)NC(=O)[C@H](Cc1ccccc1)NC(=O)[C@@H]1CCCN1C(=O)[C@@H](Cc1c[nH]cn1)NC(=O)[C@@H]1CCCN1)C(C)C)C(=O)N[C@@H](Cc1c[nH]cn1)C(=O)N[C@H](CCCCN)C(=O)O` [Example XL] showed an IC50 of 0.2 µM.
`CC[C@H](C)[C@H](NC(=O)[C@@H](NC[C@H](CC(C)C)NC(=O)[C@H](Cc1c[nH]cn1)NC(=O)[C@H](Cc1ccccc1)NC(=O)[C@@H]1CCCN1C(=O)[C@H](Cc1c[nH]cn1)NC(=O)[C@@H]1CCCN1)C(C)C)C(=O)N[C@@H](Cc1c[nH]cn1)C(=O)N[C@@H](CCCCN)C(=O)O` [XIX] gave an IC50 of 0.008 µM.
`CC(C)C[C@@H](CN[C@H](C(=O)N[C@@H](Cc1c[nH]cn1)C(=O)NCCCCCN)C(C)C)NC(=O)[C@H](Cc1c[nH]cn1)NC(=O)[C@H](Cc1ccccc1)NC(=O)[C@@H]1CCCN1C(=O)[C@H](Cc1c[nH]cn1)NC(=O)[C@@H]1CCCN1` [XVIII] (H-PHPFH-X5) showed an IC50 of 3 µM.
Work on `CC(C)C[C@@H](CN[C@H](C(=O)N[C@@H](Cc1c[nH]cn1)C(=O)NCCCN)C(C)C)NC(=O)[C@H](Cc1c[nH]cn1)NC(=O)[C@H](Cc1ccccc1)NC(=O)[C@@H]1CCCN1C(=O)[C@H](Cc1c[nH]cn1)NC(=O)[C@@H]1CCCN1` [XVII] (H-PHPFH-X2) yielded an IC50 of 4.5 µM.
Work on `CC[C@H](C)[C@H](NC(=O)[C@@H](NC[C@H](CC(C)C)NC(=O)[C@H](Cc1c[nH]cn1)NC(=O)[C@H](Cc1ccccc1)NC(=O)[C@@H]1CCCN1C(=O)[C@@H](N)Cc1c[nH]cn1)C(C)C)C(=O)N[C@H](Cc1ccc(O)cc1)C(=O)O` [XVI] yielded an IC50 of 1 µM.
`CC[C@H](C)[C@H](NC(=O)[C@@H](NC[C@H](CC(C)C)NC(=O)[C@H](Cc1c[nH]cn1)NC(=O)[C@H](Cc1ccccc1)NC(=O)[C@@H]1CCCN1C(=O)[C@H](Cc1c[nH]cn1)NC(=O)[C@H]1CCCN1)C(C)C)C(=O)N[C@@H](Cc1c[nH]cn1)C(=O)O` [XXIII] (H-[dP]HPFH-{Leuψ(CH2NH)ValIleHisOH}) gave an IC50 of 0.025 µM.
Compound `CC[C@H](C)[C@H](NC(=O)[C@@H](NC[C@H](CC(C)C)NC(=O)[C@H](Cc1c[nH]cn1)NC(=O)[C@H](Cc1ccccc1)NC(=O)[C@@H]1CCCN1C(=O)[C@H](Cc1c[nH]cn1)NC(=O)[C@@H]1CCCN1)C(C)C)C(=O)N[C@@H](Cc1c[nH]cn1)C(=O)O` [XXII] (H-PHPFH-{Leuψ(CH2NH)ValIleHisOH}) has an IC50 of 0.01 µM.
In the case of `CC[C@H](C)[C@H](NC(=O)[C@@H](NC[C@H](CC(C)C)NC(=O)[C@H](Cc1c[nH]cn1)NC(=O)[C@H](Cc1ccccc1)NC(=O)[C@@H]1CCCN1C(=O)[C@@H](N)CCCNC(=N)N)C(C)C)C(=O)N[C@@H](Cc1ccc(O)cc1)C(=O)O` [XXIV], the IC50 is reported as 0.55 µM.
Compound `CC[C@H](C)[C@H](NC(=O)[C@@H](NC[C@H](CC(C)C)NC(=O)[C@H](Cc1c[nH]cn1)NC(=O)[C@H](Cc1ccccc1)NC(=O)[C@@H]1CCCN1C(=O)[C@@H](N)Cc1c[nH]cn1)C(C)C)C(=O)N[C@@H](Cc1c[nH]cn1)C(=O)N[C@H](CCCCN)C(=O)O` [XXI] has an IC50 of 0.05 µM.
`CC[C@H](C)[C@H](NC(=O)[C@@H](NC[C@H](CC(C)C)NC(=O)[C@H](Cc1c[nH]cn1)NC(=O)[C@H](Cc1ccccc1)NC(=O)[C@H]1CCCN1C(=O)[C@@H](N)Cc1c[nH]cn1)C(C)C)C(=O)N[C@@H](Cc1c[nH]cn1)C(=O)O` [XXXII] (H-H[dP]FH-{Leuψ(CH2NH)ValIleHisOH}) was tested, and the IC50 was 5.5 µM.
With `CC[C@H](C)[C@H](NC(=O)[C@@H](NC[C@H](CC(C)C)NC(=O)[C@H](Cc1c[nH]cn1)NC(=O)[C@H](Cc1ccccc1)NC(=O)[C@@H]1CCCN1C(=O)[C@H](N)Cc1c[nH]cn1)C(C)C)C(=O)N[C@@H](Cc1c[nH]cn1)C(=O)N[C@H](CCCCN)C(=O)O` [XXXIX] the IC50 was 0.2 µM.
`CC[C@H](C)[C@H](NC(=O)[C@@H](NC[C@H](CC(C)C)NC(=O)[C@H](Cc1c[nH]cn1)NC(=O)[C@H](Cc1ccccc1)NC(=O)[C@@H]1CCCN1C(=O)[C@@H](N)Cc1c[nH]cn1)C(C)C)C(=O)N[C@@H](Cc1c[nH]cn1)C(=O)N[C@@H](CCCCN)C(=O)O` [XXXI] showed an IC50 of 0.06 µM.
`CC[C@H](C)[C@H](NC(=O)[C@@H](NC[C@H](CC(C)C)NC(=O)[C@H](Cc1c[nH]cn1)NC(=O)[C@H](Cc1ccccc1)NC(=O)[C@@H]1CCCN1C(=O)[C@H](Cc1c[nH]cn1)NC(=O)[C@@H]1CCCN1)C(C)C)C(=O)N[C@@H](Cc1c[nH]cn1)C(=O)N[C@H](CCCCN)C(=O)O` [XXXVIII] was tested, and the IC50 was 0.1 µM.
`CC[C@H](C)[C@H](NC(=O)[C@@H](NC[C@H](CC(C)C)NC(=O)[C@H](Cc1c[nH]cn1)NC(=O)[C@H](Cc1ccccc1)NC(=O)[C@@H]1CCCN1C(C)=O)C(C)C)C(=O)N[C@@H](Cc1c[nH]cn1)C(=O)N[C@H](CCCCN)C(=O)O` [XXXVII] was tested, and the IC50 was 0.6 µM.
`CC[C@H](C)[C@H](NC(=O)[C@@H](NC[C@H](CC(C)C)NC(=O)[C@H](Cc1c[nH]cn1)NC(=O)[C@H](Cc1ccccc1)NC(=O)[C@@H]1CCCN1C(=O)[C@H](Cc1c[nH]cn1)NC(=O)[C@@H]1CCCN1)C(C)C)C(=O)N[C@@H](Cc1ccc(O)cc1)C(=O)O` [XXX] (H-PHPFH-X3) was tested, and the IC50 was 0.048 µM.
`CC[C@H](C)[C@H](NC(=O)[C@@H](NC[C@H](CC(C)C)NC(=O)[C@H](Cc1c[nH]cn1)NC(=O)[C@H](Cc1ccccc1)NC(=O)[C@@H]1CCCN1C(=O)[C@H](Cc1c[nH]cn1)NC(=O)[C@@H]1CCCN1)C(C)C)C(=O)N[C@@H](Cc1ccc(O)cc1)C(=O)NCCCCCN` [XX] gave an IC50 of 3 µM.
